Reference: the supplement of paper PMC10307832

How the values were obtained:
Assay in all cases: relative viability (nuclei count vs DMSO), 5 days (fraction); higher = more cells survive
Afatinib + Olaparib = compound: CN(C)C/C=C/C(=O)Nc1cc2c(Nc3ccc(F)c(Cl)c3)ncnc2cc1O[C@H]1CCOC1 [Afatinib] + O=C(c1cc(Cc2n[nH]c(=O)c3ccccc23)ccc1F)N1CCN(C(=O)C2CC2)CC1 [Olaparib] (partner 8 µM)
Outline: (§1)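 For relative viability, nuclei counts in treated wells were divided by those in vehicle wells. Lung cancer cell lines had been pin-tool dosed in 1536-well plates the day after seeding and cultured for 5 days, then fixed and stained in one step (final 0.05% Triton X-100, 1% formaldehyde, 1 ug/ml Hoechst) and imaged at 4×. Doses were one drug alone or a fixed anchor-drug dose plus five library-drug doses (not always all listed) in √10 steps, and values are duplicate-plate medians.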

Afatinib + Foretinib = compound: CN(C)C/C=C/C(=O)Nc1cc2c(Nc3ccc(F)c(Cl)c3)ncnc2cc1O[C@H]1CCOC1 [Afatinib] + COc1cc2c(Oc3ccc(NC(=O)C4(C(=O)Nc5ccc(F)cc5)CC4)cc3F)ccnc2cc1OCCCN1CCOCC1 [Foretinib] (partner 0.25 µM)
Outline: as §1

Afatinib + Pemetrexed = compound: CN(C)C/C=C/C(=O)Nc1cc2c(Nc3ccc(F)c(Cl)c3)ncnc2cc1O[C@H]1CCOC1 [Afatinib] + Nc1nc2[nH]cc(CCc3ccc(C(=O)N[C@@H](CCC(=O)O)C(=O)O)cc3)c2c(=O)[nH]1 [Pemetrexed] (partner 0.2 µM)
Outline: as §1

Afatinib + Alpelisib = compound: CN(C)C/C=C/C(=O)Nc1cc2c(Nc3ccc(F)c(Cl)c3)ncnc2cc1O[C@H]1CCOC1 [Afatinib] + Cc1nc(NC(=O)N2CCC[C@H]2C(N)=O)sc1-c1ccnc(C(C)(C)C(F)(F)F)c1 [Alpelisib] (partner 2 µM)
Outline: as §1

| Cell Line | relative viability (Afatinib + Olaparib; first compound 0.005 µM) | relative viability (Afatinib + Olaparib; first compound 0.01581 µM) | relative viability (Afatinib + Olaparib; first compound 0.05 µM) | relative viability (Afatinib + Olaparib; first compound 0.1581 µM) | relative viability (Afatinib + Olaparib; first compound 0.5 µM) | relative viability (Afatinib + Foretinib; first compound 0.005 µM) | relative viability (Afatinib + Foretinib; first compound 0.01581 µM) | relative viability (Afatinib + Foretinib; first compound 0.05 µM) | relative viability (Afatinib + Foretinib; first compound 0.1581 µM) | relative viability (Afatinib + Foretinib; first compound 0.5 µM) | relative viability (Afatinib + Pemetrexed; first compound 0.005 µM) | relative viability (Afatinib + Pemetrexed; first compound 0.01581 µM) | relative viability (Afatinib + Pemetrexed; first compound 0.05 µM) | relative viability (Afatinib + Pemetrexed; first compound 0.1581 µM) | relative viability (Afatinib + Pemetrexed; first compound 0.5 µM) | relative viability (Afatinib + Alpelisib; first compound 0.005 µM) | relative viability (Afatinib + Alpelisib; first compound 0.01581 µM) | relative viability (Afatinib + Alpelisib; first compound 0.05 µM) | relative viability (Afatinib + Alpelisib; first compound 0.1581 µM) | relative viability (Afatinib + Alpelisib; first compound 0.5 µM) |
| --- | --- | --- | --- | --- | --- | --- | --- | --- | --- | --- | --- | --- | --- | --- | --- | --- | --- | --- | --- | --- |
| HOP-62 | 0.624 | 0.329 | 0.606 | 0.439 | 0.423 | 1.18 | 1.23 | 1.18 | 1.14 | 1.1 | 0.305 | 0.302 | 0.328 | 0.338 | 0.292 | 0.977 | 0.599 | 1.14 | 1.08 | 0.689 |
| NCI-H358 | 0.48 | 0.586 | 0.314 | 0.145 | – | 0.512 | 0.423 | 0.286 | 0.167 | 0.197 | 0.16 | 0.146 | 0.153 | 0.137 | 0.141 | 0.668 | 0.488 | 0.324 | 0.255 | 0.37 |
| SK-MES-1 | 0.682 | 0.489 | 0.325 | 0.334 | 0.404 | 0.905 | 0.552 | 0.596 | 0.372 | 0.448 | 0.386 | 0.707 | 0.472 | 0.438 | 0.434 | 0.823 | 0.653 | 0.396 | 0.309 | 0.32 |
| NCI-H1666 | 0.78 | 0.792 | 0.75 | 0.712 | 0.681 | 0.932 | 0.812 | 0.761 | 0.725 | 0.774 | 0.85 | 0.768 | 0.843 | 0.704 | 0.69 | 0.968 | 0.605 | 0.505 | – | 0.497 |
| NCI-H1355 | 0.723 | 0.768 | 0.713 | 0.716 | 0.67 | 0.947 | 0.636 | 0.824 | 0.773 | 0.751 | 1.07 | 1.01 | 0.946 | 0.906 | 0.974 | 0.782 | 0.89 | 0.918 | 0.656 | 0.645 |
| HCC-827 | 0.135 | 0.0842 | 0.145 | 0.158 | 0.142 | 0.135 | 0.166 | 0.162 | 0.147 | 0.163 | 0.118 | 0.157 | 0.153 | 0.153 | 0.159 | 0.172 | 0.157 | 0.183 | 0.17 | 0.184 |
| HARA | 0.688 | – | 0.344 | 0.462 | 0.391 | 0.825 | 0.451 | 0.401 | 0.377 | 0.403 | 0.21 | – | 0.185 | 0.217 | 0.225 | 0.45 | 0.652 | 0.397 | 0.313 | 0.397 |
| HCC-366 | 0.299 | 0.38 | 0.391 | 0.3 | 0.367 | 0.916 | 0.949 | 0.868 | 0.937 | 0.914 | 0.16 | 0.173 | 0.146 | 0.196 | 0.168 | 0.375 | 0.423 | 0.41 | 0.308 | 0.485 |
